Calls of active or inactive are those of the source. How the calls were made is not given here.
Test: rescue of alpha-synuclein yeast toxicity, dose response, S. cerevisiae, plate reader, cherry-pick (AID 602273)
Details: S. cerevisiae alpha-synuclein toxicity rescue, OD600 growth, 24 h; at 12 µM (top of the series)

Structure (SMILES) | growth rescue activity
O=C(NC1C(=O)NNC1c1ccccc1)c1ccccc1 (centres undefined) | 8.13% (inactive)

Same assay, conditions: S. cerevisiae alpha-synuclein toxicity rescue, OD600 growth, 24 h; at 26 µM (top of the series)

Structure (SMILES) | growth rescue activity
Cc1ccc(C2=Nc3ccccc3NC(C)(c3ccc(C)o3)C2)o1 (centres undefined) | 0.617% (inactive)
CN(Cc1nnc(-c2ccc(F)cc2)o1)c1ccccc1 | 8.17% (inactive)
C/C(=N\NC(=O)c1ccoc1C)c1cccc2ccccc12 | 8.58% (inactive)
COc1ccc(C(c2c(O)ccc3ccccc23)N2CCOCC2)c(OC)c1 (centres undefined) | -24.5% (inactive)
Fc1ccccc1-c1nc2nc3ccccc3nc2n1CC1CCCO1 (centres undefined) | 11.6% (inactive)
Cc1ccc(C(=O)CNc2ccc(Cl)cc2)cc1 | 5.52% (inactive)
Cc1ccc(CNC(=O)CSc2ccsc2[N+](=O)[O-])cc1 | 2.48% (inactive)
CCN1C(=O)CC(N2CCN(c3ccc(C(=O)c4ccccc4)cc3)CC2)C1=O (centres undefined) | -0.853% (inactive)
Cc1ccc(CN(C)C(=O)C2CCC(=O)N(CCc3ccccc3)C2)o1 (centres undefined) | 1.41% (inactive)
CC1(C)CC(=O)C(=Cc2cn(-c3ccccc3)nc2-c2ccccc2)C(=O)C1 | 1.64% (inactive)
CC(OC(=O)/C=C/c1ccc2ccccc2n1)C(=O)NCc1ccccc1 (centres undefined) | 3.64% (inactive)
CC(=O)Nc1cccc(NC(=O)CSc2ncc(C(=O)Nc3ccccc3)c(=O)n2C)c1 | -9.48% (inactive)
CCN(CC)CCn1c2ccccc2c2nc3ccc([N+](=O)[O-])cc3cc21 | 0.822% (inactive)
Cc1[nH]n(-c2ccccc2)c(=O)c1C=NCCc1ccccc1 | 5.9% (inactive)
O=C(O)CC1=C(Nc2ccccc2)C(=O)N(c2ccccc2)C1c1ccc(Cl)cc1 (centres undefined) | 7.05% (inactive)
Cc1ccc(/C=C2\Oc3cc(OC(=O)N4CCOCC4)ccc3C2=O)cc1 | -7.43% (inactive)
O=C(O)CSc1nc2ccccc2nc1Cc1ccccc1F | 5.3% (inactive)
CC1(C)CC(=O)C2=C(C1)OC(N)=C(C#N)C2C#Cc1ccccc1 (centres undefined) | 8.43% (inactive)
CCN(CC)CCCNC(=O)CSc1c2c(nc3cc(Cl)ccc13)CCCC2 | 3.73% (inactive)
CCOC(=O)CC(=O)CSCC(=O)Nc1ccc(C)cc1 | -1.13% (inactive)
O=C1NC(=S)S/C1=C/c1ccc(OC(=O)c2ccco2)cc1 | 9.87% (inactive)
COc1ccc(C(=O)Cn2c(C(=O)/C=C/c3ccccc3)nc3ccccc32)cc1 | 1.68% (inactive)
CC(=O)Cc1cc(O)c2ccccc2c1OC(=O)c1ccccc1 | -0.443% (inactive)

Structure (SMILES) | growth rescue activity
COc1cccc(-c2nnc(SCc3nc4ccccc4[nH]3)n2N)c1 | 1.34% (inactive)
COc1ccc(OCc2nnnn2-c2ccccc2)cc1 | -3.39% (inactive)
CCOC(=O)Nc1ccc(C(=O)Oc2ccccc2)c(O)c1 | -4.86% (inactive)
Cc1cc(C)n(CC(O)COc2ccc(Cl)cc2Cl)n1 (centres undefined) | 9.05% (inactive)
Cc1csc2nc(CCNS(=O)(=O)c3cccs3)cn12 | 3.48% (inactive)
CCOC(=O)C1=NN(C(=O)c2ccccc2)C(O)(c2ccc(C)cc2)C1 (centres undefined) | 10.9% (inactive)
O=C(CCC1CCCN(C(=O)c2ccc3cc[nH]c3c2)C1)NCc1ccc(F)c(F)c1 (centres undefined) | -2.77% (inactive)
CCCCC(=O)OCC(=O)c1[nH]c(C)c(C(=O)OCC)c1C | 2.65% (inactive)
Cn1c(CO)cnc1SCC(=O)c1ccc(Cl)cc1 | 4.95% (inactive)
O=C(NCc1cccc(F)c1)c1noc2c1CCCC2 | 10.6% (inactive)
CN(CCC1CCCCO1)C(=O)CCc1nnc(CCCCc2ccccc2)o1 (centres undefined) | 1.7% (inactive)
COc1ccc(NC(=O)COC(=O)/C=C/C(=O)OCC(=O)Nc2ccc(OC)c(Cl)c2)cc1Cl | 3.29% (inactive)
COc1ccc2cc(/C=C/C(=O)N3CCN(CC(=O)N4CCCCCC4)CC3)ccc2c1 | -2.63% (inactive)
O=C(Nc1ccc2c(c1)C(=O)OC2)c1ccc(Cl)cc1 | -1.79% (inactive)
O=c1[nH]c2c(s1)C=Nc1ccccc1N2 | 4.6% (inactive)
CCCSc1nnc(Sc2nnnn2-c2ccccc2)s1 | 4.13% (inactive)
Brc1cnc2nc(SC/C=C/c3ccccc3)[nH]c2c1 | 0.58% (inactive)
Nc1ccc(Sc2cnn(-c3ccccc3)c(=O)c2Cl)cc1 | 1.77% (inactive)
O=C(CC12CCC(CC1)C2)NCc1ccc2c(c1)OCO2 | 2.83% (inactive)
O=c1c2ccccc2[nH]c(=S)n1CCC1=CCCCC1 | 21.3% (inactive)
O=C1C2CC=CCC2C(=O)N1c1ccc(NCCc2ccccc2)c([N+](=O)[O-])c1 (centres undefined) | 11.8% (inactive)
Cc1ccc2cccnc2c1NC(=S)NC(=O)c1ccccc1 | -4.6% (inactive)
O=C(OCc1csc(-c2ccccc2)n1)c1cccs1 | 0.967% (inactive)

Structure (SMILES) | growth rescue activity
Cc1nc2ccccc2nc(C)c1=NOCc1ccccc1Cl | 0.053% (inactive)
Cc1ccc(N2C(=O)SC(N(CC(=O)O)c3ccc(C)cc3)C2=O)cc1 (centres undefined) | -2.3% (inactive)
Cc1cc(-c2nnc(CCC(=O)N(C)Cc3cccc4ccccc34)o2)no1 | 8.5% (inactive)
O=c1[nH]n(CC2COC3(CCCCC3)O2)c(=O)c2ccccc12 (centres undefined) | -3.22% (inactive)
CC(=O)c1cccc(N(CC(=O)Nc2ccc(F)cc2F)S(C)(=O)=O)c1 | 2.96% (inactive)
CNc1nc(Nc2ccc(C)c(Cl)c2)nc(N)c1[N+](=O)[O-] | -8.67% (inactive)
O=C1C2CC=CCC2C(=O)N1Cc1nnc(-c2ccc(Cl)cc2)o1 (centres undefined) | -2.43% (inactive)
CCn1c(SCC(=O)c2ccc(Cl)cc2)nnc1-c1ccoc1C | 2.33% (inactive)
COC(=O)C1CCN(C(=O)COC(=O)c2ccc(OC)c(S(=O)(=O)N3CCCc4ccccc43)c2)CC1 | -1.07% (inactive)
Cn1cc([N+](=O)[O-])c(C(=O)Nc2ccc(-c3nc4ccccc4[nH]3)cc2)n1 | -1.83% (inactive)
O=C(NC1CCSc2ccccc21)c1ccccc1Cl (centres undefined) | -4.11% (inactive)
COc1ccc(/C=C2/SC(=O)N(CCNC(=O)C3COc4ccccc4O3)C2=O)cc1 (centres undefined) | 5.56% (inactive)
O=C(O)C1CCCCC1C(=O)Nc1ccc2c(c1)CCC2 (centres undefined) | -2.7% (inactive)
O=C(Cc1cccs1)NCc1ccccc1Br | -5.14% (inactive)
CC(=O)Nc1nnc(SCC(=O)c2ccc(F)cc2)s1 | -0.765% (inactive)
CC(C)C(=O)N1CCC(n2nccc2NC(=O)CCOc2ccccc2)CC1 | -1.45% (inactive)
O=C(Nc1ccccc1C(=O)OCC(=O)c1c[nH]c2ccccc12)c1ccco1 | 5.29% (inactive)
Cc1cccc(NCc2nc3ccccc3n2C)c1 | -1.89% (inactive)
Cc1ccc(O)c(NC(=O)c2onc(C)c2Cl)c1 | 6.44% (inactive)
O=c1[nH]c2ccccc2n1CCC1CCCCC1 | 8.15% (inactive)
CC(C)CC(=O)Nc1ccc(N2CCOCC2)cc1 | 3.83% (inactive)
CC(C)(C)c1cc(NC(=O)CCSc2nnc3ccccn23)cc(C(C)(C)C)c1 | 3.55% (inactive)

Source: PubChem BioAssay AID602273 (Broad Institute, 2012)
